# Test results published in patent US9611249B2, “1H-indazole-3-carboxamide compounds as glycogen synthase kinase 3 beta inhibitors” (AZIENDE CHIMICHE RIUNITE ANGELINI FRANCESCO A.C.R.A.F. …, priority 2012, dated 2017).
# Experiments:
# [1] = biological target: PAK1 (h) (Homo sapiens (Human), UniProt Q13153); experiment: Kinase selectivity panel: PAK1 (h); type: biochemical; details: 10 μM in duplicate, read-out: % inhibition of control values
# Procedure: (§1) (a) Compounds 1 and 2 were tested against a panel of 60 kinases in order to assess their selectivity. The assays were chosen taking into consideration the diversity of assay families.
# (§2) Tested kinases were representative of following kinase sub-families: • protein-serine/threonine kinases; • protein-tyrosine kinases; • other kinases; and • atypical kinases.
# (§3) Human recombinant kinases were incubated in the presence of specific peptide substrates plus ATP for different times (10, 15, 30, 60 or 90 minutes) at 22° C. Phosphorylated substrate was detected by LANCE or HTRF technology (CISBIO, MA, USA). The compounds were tested at 10 μM in duplicate.
# (§4) The results are expressed as a percentage of inhibition of control specific activity obtained in the presence of the test compounds and are reported in the following Table 5.
# (§5) (b) Compounds 3, 8, 29 and 31 were tested against the same panel of 60 kinases under the same conditions described above for compounds 1 and 2.
# (§6) The results are expressed as a percent of inhibition of control specific activity obtained in the presence of the test compounds and are reported in the following Table 6.
# [2] = biological target: CaMK4 (h) (Homo sapiens (Human), UniProt Q16566); experiment: Kinase selectivity panel: CaMK4 (h); type: biochemical; details: 10 μM in duplicate, read-out: % inhibition of control values
# Procedure: as §1, §2, §3, §4, §5, §6
# [3] = biological target: AurB/Aur1 kinase (h) (Homo sapiens (Human), UniProt Q96GD4); experiment: Kinase selectivity panel: AurB/Aur1 kinase (h); type: biochemical; details: 10 μM in duplicate, read-out: % inhibition of control values
# Procedure: as §1, §2, §3, §4, §5, §6
# [4] = biological target: DYRK1a (h) (Homo sapiens (Human), UniProt Q13627); experiment: Kinase selectivity panel: DYRK1a (h); type: biochemical; details: 10 μM in duplicate, read-out: % inhibition of control values
# Procedure: as §1, §2, §3, §4, §5, §6
# [5] = biological target: AurA/Aur2 kinase (h) (Homo sapiens (Human), UniProt O14965); experiment: Kinase selectivity panel: AurA/Aur2 kinase (h); type: biochemical; details: 10 μM in duplicate, read-out: % inhibition of control values
# Procedure: as §1, §2, §3, §4, §5, §6
# [6] = biological target: JAK2 (h) (Homo sapiens (Human), UniProt O60674); experiment: Kinase selectivity panel: JAK2 (h); type: biochemical; details: 10 μM in duplicate, read-out: % inhibition of control values
# Procedure: as §1, §2, §3, §4, §5, §6
# [7] = biological target: NEK7 (h) (Homo sapiens (Human), UniProt Q8TDX7); experiment: Kinase selectivity panel: NEK7 (h); type: biochemical; details: 10 μM in duplicate, read-out: % inhibition of control values
# Procedure: as §1, §2, §3, §4, §5, §6
# [8] = biological target: PKCbeta 1 (h) (Homo sapiens (Human), UniProt P05771); experiment: Kinase selectivity panel: PKCbeta 1 (h); type: biochemical; details: 10 μM in duplicate, read-out: % inhibition of control values
# Procedure: as §1, §2, §3, §4, §5, §6
# [9] = biological target: CDC2/CDK1 (h) (cycB) (Homo sapiens (Human), UniProt P06493); experiment: Kinase selectivity panel: CDC2/CDK1 (h) (cycB); type: biochemical; details: 10 μM in duplicate, read-out: % inhibition of control values
# Procedure: as §1, §2, §3, §4, §5, §6
# [10] = biological target: MYT1 kinase (h) (Homo sapiens (Human), UniProt Q99640); experiment: Kinase selectivity panel: MYT1 kinase (h); type: biochemical; details: 10 μM in duplicate, read-out: % inhibition of control values
# Procedure: as §1, §2, §3, §4, §5, §6
# [11] = biological target: RSK2 (h) (Homo sapiens (Human), UniProt P51812); experiment: Kinase selectivity panel: RSK2 (h); type: biochemical; details: 10 μM in duplicate, read-out: % inhibition of control values
# Procedure: as §1, §2, §3, §4, §5, §6
# [12] = biological target: p38alpha kinase (h) (Homo sapiens (Human), UniProt Q16539); experiment: Kinase selectivity panel: p38alpha kinase (h); type: biochemical; details: 10 μM in duplicate, read-out: % inhibition of control values
# Procedure: as §1, §2, §3, §4, §5, §6
# [13] = biological target: DAPK1 (h) (Homo sapiens (Human), UniProt P53355); experiment: Kinase selectivity panel: DAPK1 (h); type: biochemical; details: 10 μM in duplicate, read-out: % inhibition of control values
# Procedure: as §1, §2, §3, §4, §5, §6
# [14] = biological target: PCTAIRE1 kinase (h) (Homo sapiens (Human), UniProt Q00536); experiment: Kinase selectivity panel: PCTAIRE1 kinase (h); type: biochemical; details: 10 μM in duplicate, read-out: % inhibition of control values
# Procedure: as §1, §2, §3, §4, §5, §6
# [15] = biological target: IKKepsilon (h) (IKBKE) (Homo sapiens (Human), UniProt Q14164); experiment: Kinase selectivity panel: IKKepsilon (h) (IKBKE); type: biochemical; details: 10 μM in duplicate, read-out: % inhibition of control values
# Procedure: as §1, §2, §3, §4, §5, §6
# [16] = biological target: CHK1 (h) (Homo sapiens (Human), UniProt O14757); experiment: Kinase selectivity panel: CHK1 (h); type: biochemical; details: 10 μM in duplicate, read-out: % inhibition of control values
# Procedure: as §1, §2, §3, §4, §5, §6
# [17] = biological target: PKCgamma (h) (Homo sapiens (Human), UniProt P05129); experiment: Kinase selectivity panel: PKCgamma (h); type: biochemical; details: 10 μM in duplicate, read-out: % inhibition of control values
# Procedure: as §1, §2, §3, §4, §5, §6
# [18] = biological target: TAOK2 (TAO1) (h) (Homo sapiens (Human), UniProt Q9UL54); experiment: Kinase selectivity panel: TAOK2 (TAO1) (h); type: biochemical; details: 10 μM in duplicate, read-out: % inhibition of control values
# Procedure: as §1, §2, §3, §4, §5, §6
# [19] = biological target: Pim1 kinase (h) (Homo sapiens (Human), UniProt P11309); experiment: Kinase selectivity panel: Pim1 kinase (h); type: biochemical; details: 10 μM in duplicate, read-out: % inhibition of control values
# Procedure: as §1, §2, §3, §4, §5, §6
# [20] = biological target: PKA (h) (Homo sapiens (Human), UniProt P17612); experiment: Kinase selectivity panel: PKA (h); type: biochemical; details: 10 μM in duplicate, read-out: % inhibition of control values
# Procedure: as §1, §2, §3, §4, §5, §6
# [21] = biological target: PDK1 (h) (Homo sapiens (Human), UniProt O15530); experiment: Kinase selectivity panel: PDK1 (h); type: biochemical; details: 10 μM in duplicate, read-out: % inhibition of control values
# Procedure: as §1, §2, §3, §4, §5, §6
# [22] = biological target: EphB2 kinase (h) (Homo sapiens (Human), UniProt P29323); experiment: Kinase selectivity panel: EphB2 kinase (h); type: biochemical; details: 10 μM in duplicate, read-out: % inhibition of control values
# Procedure: as §1, §2, §3, §4, §5, §6
# [23] = biological target: ERK1 (h) (Homo sapiens (Human), UniProt P27361); experiment: Kinase selectivity panel: ERK1 (h); type: biochemical; details: 10 μM in duplicate, read-out: % inhibition of control values
# Procedure: as §1, §2, §3, §4, §5, §6
# [24] = biological target: GRK3/BARK2 (h) (ADRBK2) (Homo sapiens (Human), UniProt P35626); experiment: Kinase selectivity panel: GRK3/BARK2 (h) (ADRBK2); type: biochemical; details: 10 μM in duplicate, read-out: % inhibition of control values
# Procedure: as §1, §2, §3, §4, §5, §6
# [25] = biological target: PhKgamma 2 (h) (Homo sapiens (Human), UniProt P15735); experiment: Kinase selectivity panel: PhKgamma 2 (h); type: biochemical; details: 10 μM in duplicate, read-out: % inhibition of control values
# Procedure: as §1, §2, §3, §4, §5, §6
# [26] = biological target: IKKalpha (h) (Homo sapiens (Human), UniProt O15111); experiment: Kinase selectivity panel: IKKalpha (h); type: biochemical; details: 10 μM in duplicate, read-out: % inhibition of control values
# Procedure: as §1, §2, §3, §4, §5, §6
# [27] = biological target: FGFR4 kinase (h) (Homo sapiens (Human), UniProt P22455); experiment: Kinase selectivity panel: FGFR4 kinase (h); type: biochemical; details: 10 μM in duplicate, read-out: % inhibition of control values
# Procedure: as §1, §2, §3, §4, §5, §6
# [28] = system: AMPKalpha; experiment: Kinase selectivity panel: AMPKalpha; type: biochemical, human; details: 10 μM in duplicate
# Procedure: as §1, §2, §3, §4, §5, §6
# PDK1 (h), sequence (O15530 whole entry): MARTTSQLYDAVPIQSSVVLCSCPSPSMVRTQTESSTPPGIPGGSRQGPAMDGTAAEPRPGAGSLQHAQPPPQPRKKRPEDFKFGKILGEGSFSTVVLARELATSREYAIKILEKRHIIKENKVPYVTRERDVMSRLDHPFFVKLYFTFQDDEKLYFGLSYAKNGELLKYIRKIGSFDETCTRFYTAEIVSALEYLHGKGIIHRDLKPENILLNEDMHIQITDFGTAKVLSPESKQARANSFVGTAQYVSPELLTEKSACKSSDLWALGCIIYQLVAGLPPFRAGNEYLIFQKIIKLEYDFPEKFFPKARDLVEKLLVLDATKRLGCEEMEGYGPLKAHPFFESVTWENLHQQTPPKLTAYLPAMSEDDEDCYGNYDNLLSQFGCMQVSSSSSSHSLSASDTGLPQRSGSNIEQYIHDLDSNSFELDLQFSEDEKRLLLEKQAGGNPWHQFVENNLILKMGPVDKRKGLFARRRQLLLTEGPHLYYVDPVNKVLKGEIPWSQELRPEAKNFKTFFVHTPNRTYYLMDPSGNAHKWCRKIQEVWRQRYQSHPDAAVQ
# EphB2 kinase (h), sequence (P29323 19-1055): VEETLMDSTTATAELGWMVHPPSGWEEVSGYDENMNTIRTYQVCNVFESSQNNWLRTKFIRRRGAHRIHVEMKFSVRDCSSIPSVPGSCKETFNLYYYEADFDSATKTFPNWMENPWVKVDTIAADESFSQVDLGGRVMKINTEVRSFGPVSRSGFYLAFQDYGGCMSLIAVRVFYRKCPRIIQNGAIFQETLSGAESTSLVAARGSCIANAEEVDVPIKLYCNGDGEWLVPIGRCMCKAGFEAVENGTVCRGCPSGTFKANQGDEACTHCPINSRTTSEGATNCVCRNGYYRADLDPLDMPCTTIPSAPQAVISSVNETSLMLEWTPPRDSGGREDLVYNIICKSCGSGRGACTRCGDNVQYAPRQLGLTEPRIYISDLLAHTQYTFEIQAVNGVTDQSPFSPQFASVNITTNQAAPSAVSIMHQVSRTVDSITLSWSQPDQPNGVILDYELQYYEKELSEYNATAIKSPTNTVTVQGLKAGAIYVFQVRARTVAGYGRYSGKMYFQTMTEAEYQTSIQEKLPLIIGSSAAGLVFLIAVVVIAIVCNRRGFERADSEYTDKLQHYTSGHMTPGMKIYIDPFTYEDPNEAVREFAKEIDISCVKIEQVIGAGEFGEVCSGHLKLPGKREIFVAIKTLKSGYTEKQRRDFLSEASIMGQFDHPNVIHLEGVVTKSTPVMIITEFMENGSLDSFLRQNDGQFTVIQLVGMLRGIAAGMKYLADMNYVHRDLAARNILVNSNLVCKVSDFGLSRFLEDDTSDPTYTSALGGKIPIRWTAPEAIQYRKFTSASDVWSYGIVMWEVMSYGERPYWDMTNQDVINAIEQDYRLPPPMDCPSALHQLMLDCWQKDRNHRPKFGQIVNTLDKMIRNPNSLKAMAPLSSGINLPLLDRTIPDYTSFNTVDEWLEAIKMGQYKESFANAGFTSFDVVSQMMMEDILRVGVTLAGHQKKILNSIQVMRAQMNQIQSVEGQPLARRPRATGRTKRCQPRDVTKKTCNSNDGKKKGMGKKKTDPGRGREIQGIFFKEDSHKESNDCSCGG
# IKKalpha (h), sequence (O15111 whole entry): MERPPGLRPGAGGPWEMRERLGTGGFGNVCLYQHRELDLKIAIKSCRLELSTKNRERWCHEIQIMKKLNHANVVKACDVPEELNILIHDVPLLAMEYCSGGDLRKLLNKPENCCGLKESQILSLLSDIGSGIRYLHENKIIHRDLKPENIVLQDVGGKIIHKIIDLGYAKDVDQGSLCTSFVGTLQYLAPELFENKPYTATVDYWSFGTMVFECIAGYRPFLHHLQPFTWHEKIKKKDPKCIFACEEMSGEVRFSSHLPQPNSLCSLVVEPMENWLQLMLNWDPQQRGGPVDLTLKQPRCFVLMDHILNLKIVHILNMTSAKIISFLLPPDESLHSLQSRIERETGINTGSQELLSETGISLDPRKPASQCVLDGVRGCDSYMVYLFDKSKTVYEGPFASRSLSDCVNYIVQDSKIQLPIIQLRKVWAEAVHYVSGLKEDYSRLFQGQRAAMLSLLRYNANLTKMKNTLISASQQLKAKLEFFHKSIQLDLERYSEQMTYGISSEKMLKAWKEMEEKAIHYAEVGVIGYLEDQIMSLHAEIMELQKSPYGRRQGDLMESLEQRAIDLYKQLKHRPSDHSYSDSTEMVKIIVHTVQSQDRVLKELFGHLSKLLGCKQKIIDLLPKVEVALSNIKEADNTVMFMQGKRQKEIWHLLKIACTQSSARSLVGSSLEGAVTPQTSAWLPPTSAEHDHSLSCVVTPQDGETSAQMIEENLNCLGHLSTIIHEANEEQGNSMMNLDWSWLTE
# NEK7 (h), sequence (Q8TDX7 whole entry): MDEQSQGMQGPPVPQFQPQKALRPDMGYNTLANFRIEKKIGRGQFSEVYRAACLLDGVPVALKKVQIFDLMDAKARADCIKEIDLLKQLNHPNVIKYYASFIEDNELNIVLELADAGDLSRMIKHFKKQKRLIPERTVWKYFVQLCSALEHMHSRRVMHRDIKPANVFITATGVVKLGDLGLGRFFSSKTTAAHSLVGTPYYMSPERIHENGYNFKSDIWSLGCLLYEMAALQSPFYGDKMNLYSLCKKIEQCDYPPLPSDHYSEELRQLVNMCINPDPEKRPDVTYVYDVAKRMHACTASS
# IKKepsilon (h) (IKBKE), sequence (Q14164 whole entry): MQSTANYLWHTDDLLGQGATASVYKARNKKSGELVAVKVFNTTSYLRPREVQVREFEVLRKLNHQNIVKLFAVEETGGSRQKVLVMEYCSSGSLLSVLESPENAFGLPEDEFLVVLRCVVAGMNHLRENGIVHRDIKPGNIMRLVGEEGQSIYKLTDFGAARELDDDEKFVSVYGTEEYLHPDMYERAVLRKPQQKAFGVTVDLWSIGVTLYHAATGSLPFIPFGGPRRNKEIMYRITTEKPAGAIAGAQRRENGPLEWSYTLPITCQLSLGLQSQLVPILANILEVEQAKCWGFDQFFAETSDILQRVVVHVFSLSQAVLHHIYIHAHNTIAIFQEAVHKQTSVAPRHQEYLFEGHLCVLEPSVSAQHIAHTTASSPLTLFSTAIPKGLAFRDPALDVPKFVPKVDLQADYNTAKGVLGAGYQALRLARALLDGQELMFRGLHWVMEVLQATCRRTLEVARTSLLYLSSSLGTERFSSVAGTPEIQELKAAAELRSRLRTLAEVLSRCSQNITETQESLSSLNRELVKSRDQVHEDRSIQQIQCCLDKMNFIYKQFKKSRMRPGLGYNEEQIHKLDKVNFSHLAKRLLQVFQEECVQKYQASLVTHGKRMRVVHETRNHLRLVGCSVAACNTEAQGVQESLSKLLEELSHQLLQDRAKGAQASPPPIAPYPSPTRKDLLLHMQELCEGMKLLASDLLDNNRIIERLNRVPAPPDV
# MYT1 kinase (h), sequence (Q99640 whole entry): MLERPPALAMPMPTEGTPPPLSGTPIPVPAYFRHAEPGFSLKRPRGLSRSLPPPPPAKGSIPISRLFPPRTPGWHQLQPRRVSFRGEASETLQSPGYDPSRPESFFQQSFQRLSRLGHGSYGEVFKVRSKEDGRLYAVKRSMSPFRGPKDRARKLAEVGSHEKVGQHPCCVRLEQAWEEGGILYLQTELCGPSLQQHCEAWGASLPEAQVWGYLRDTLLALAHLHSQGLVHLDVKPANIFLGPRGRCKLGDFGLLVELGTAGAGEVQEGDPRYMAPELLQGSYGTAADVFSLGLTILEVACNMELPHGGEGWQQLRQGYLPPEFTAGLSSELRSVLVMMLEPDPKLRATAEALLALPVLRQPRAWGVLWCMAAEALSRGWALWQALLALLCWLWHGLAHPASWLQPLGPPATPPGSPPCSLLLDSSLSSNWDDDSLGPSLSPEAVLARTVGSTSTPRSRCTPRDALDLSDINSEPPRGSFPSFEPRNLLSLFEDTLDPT
# PCTAIRE1 kinase (h), sequence (Q00536 whole entry): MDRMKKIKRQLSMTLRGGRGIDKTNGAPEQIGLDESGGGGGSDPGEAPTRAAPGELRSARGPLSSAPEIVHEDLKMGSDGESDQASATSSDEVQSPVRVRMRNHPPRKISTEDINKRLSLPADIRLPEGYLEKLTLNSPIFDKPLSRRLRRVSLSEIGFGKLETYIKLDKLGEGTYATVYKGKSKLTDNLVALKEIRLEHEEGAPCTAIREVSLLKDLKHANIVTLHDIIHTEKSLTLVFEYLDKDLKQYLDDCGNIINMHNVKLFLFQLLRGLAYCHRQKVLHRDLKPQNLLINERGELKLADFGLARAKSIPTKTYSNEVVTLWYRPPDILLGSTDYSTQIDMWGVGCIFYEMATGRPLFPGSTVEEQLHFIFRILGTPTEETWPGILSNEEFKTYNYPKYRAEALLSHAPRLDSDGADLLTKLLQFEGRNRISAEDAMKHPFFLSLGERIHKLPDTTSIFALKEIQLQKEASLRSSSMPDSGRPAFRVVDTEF
# Pim1 kinase (h), sequence (P11309 whole entry): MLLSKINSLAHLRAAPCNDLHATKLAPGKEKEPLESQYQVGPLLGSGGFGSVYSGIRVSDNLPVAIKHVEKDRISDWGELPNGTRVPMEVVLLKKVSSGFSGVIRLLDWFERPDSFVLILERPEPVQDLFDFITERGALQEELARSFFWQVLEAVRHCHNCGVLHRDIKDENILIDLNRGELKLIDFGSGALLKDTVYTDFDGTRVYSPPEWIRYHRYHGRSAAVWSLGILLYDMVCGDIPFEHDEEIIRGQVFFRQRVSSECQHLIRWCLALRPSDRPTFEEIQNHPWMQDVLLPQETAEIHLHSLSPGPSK
# AurB/Aur1 kinase (h), sequence (Q96GD4 whole entry): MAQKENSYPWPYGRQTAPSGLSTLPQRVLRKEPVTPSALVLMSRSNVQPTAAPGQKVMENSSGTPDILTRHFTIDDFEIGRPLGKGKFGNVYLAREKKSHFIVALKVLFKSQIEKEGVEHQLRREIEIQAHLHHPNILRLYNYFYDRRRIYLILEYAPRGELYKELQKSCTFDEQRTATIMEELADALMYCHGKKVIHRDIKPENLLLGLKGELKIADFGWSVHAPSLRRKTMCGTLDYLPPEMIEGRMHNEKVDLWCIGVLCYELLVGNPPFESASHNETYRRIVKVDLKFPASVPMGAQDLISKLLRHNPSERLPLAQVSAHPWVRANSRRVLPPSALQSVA
SMILES,inhibition at 10 µM [1],inhibition at 10 µM [2],inhibition at 10 µM [3],inhibition at 10 µM [4],inhibition at 10 µM [5],inhibition at 10 µM [6],inhibition at 10 µM [7],inhibition at 10 µM [8],inhibition at 10 µM [9],inhibition at 10 µM [10],inhibition at 10 µM [11],inhibition at 10 µM [12],inhibition at 10 µM [13],inhibition at 10 µM [14],inhibition at 10 µM [15],inhibition at 10 µM [16],inhibition at 10 µM [17],inhibition at 10 µM [18],inhibition at 10 µM [19],inhibition at 10 µM [20],other results
COc1ccc2[nH]nc(C(=O)NCC3CCN(CCC(=O)O)CC3)c2c1 [Compound 3],0%,15%,0%,51%,4%,0%,2%,0%,8%,2%,4%,0%,3%,0%,0%,0%,2%,0%,12%,0%,inhibition at 10 µM [21]: 0%; inhibition at 10 µM [22]: 0%; inhibition at 10 µM [23]: 19%; inhibition at 10 µM [24]: 0%; inhibition at 10 µM [25]: 1%; inhibition at 10 µM [26]: 0%; inhibition at 10 µM [27]: 0%
"COCCN1CCC(CNC(=O)c2n[nH]c3ccc(-c4cccc(F)c4F)cc23)CC1 [Compound 8, 5-(2,3-difluorophenyl)-N-{[1-(2-methoxyethyl)piperidin-4-yl]methyl}-1H-indazole-3-carboxamide]",3%,4%,0%,99%,10%,23%,0%,28%,80%,20%,4%,1%,47%,84%,3%,0%,0%,79%,17%,0%,% inhibition of control values [28]: 68%; inhibition at 10 µM [21]: 0%; inhibition at 10 µM [22]: 2%; inhibition at 10 µM [23]: 66%; inhibition at 10 µM [24]: 8%; inhibition at 10 µM [25]: 0%; inhibition at 10 µM [26]: 1%; inhibition at 10 µM [27]: 2%
